In patent USRE39497E1, “Storage of materials” (Nektar Therapeutics, priority 1989, dated 2007):

Columns and labels:
[1] = L. Slade and H. Levine, Pure Appl. Chem. 60 1841 (1988); cited from earlier work
[2] = Glass transition temperature Tg (differential scanning calorimeter); format: physicochemical; conditions: determined by the applicant
Source text: Tg values can be determined with a differential scanning calorimeter and can be detected as a point at which a plot of heat input against temperature passes through an inflection point—giving a maximum of the first temperature derivative.

For `OC[C@H]1O[C@H](O[C@H]2[C@H](O)[C@@H](O)C(O)O[C@@H]2CO)[C@H](O)[C@@H](O)[C@@H]1O` (mixture of isomers) [maltose], the Tg [1] is given as 43 °C.

With `OC[C@H]1O[C@@](CO)(O[C@H]2O[C@H](CO)[C@@H](O)[C@H](O)[C@H]2O)[C@@H](O)[C@@H]1O` [sucrose] the Tg value [2] was 55 °C.

For maltotriose, the Tg [1] is given as 76 °C.
